Experimental data taken from PubChem BioAssay AID330 (DTP/NCI, 2004).
Toxic doses and inconclusive results are not listed. How the source made its calls: active means survival T/C of 150% or more; inactive means T/C below 125% in these data.

Tested on: P388 leukemia ip, CD2F1 mice, survival T/C
Test: NCI In Vivo Anticancer Drug Screen. Data for tumor model P388 Leukemia (intraperitoneal) in CD2F1 (CDF1) mice
Conditions: endpoint: median survival time, higher = longer survival
In short: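 Mice carrying the transplanted tumor received test compound or vehicle. Survival was recorded in each group, and the value is the treated-group measurement divided by that of the vehicle-treated control group.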

[1] = dose: 6.25 mg/kg/injection, schedule: Q01DX009 (ip), vehicle: Klucel (hydroxypropylcellulose) (HPC)
[2] = dose: 12.5 mg/kg/injection, schedule: Q01DX009 (ip), vehicle: Klucel (hydroxypropylcellulose) (HPC)
[3] = dose: 25.0 mg/kg/injection, schedule: Q01DX009 (ip), vehicle: Klucel (hydroxypropylcellulose) (HPC)
[4] = dose: 50.0 mg/kg/injection, schedule: Q01DX009 (ip), vehicle: saline with Tween-80
[5] = dose: 100.0 mg/kg/injection, schedule: Q01DX009 (ip), vehicle: saline with Tween-80
[6] = dose: 200.0 mg/kg/injection, schedule: Q01DX009 (ip), vehicle: saline with Tween-80
[7] = dose: 100.0 mg/kg/injection, schedule: Q04DX003 (ip), vehicle: saline with Tween-80
[8] = dose: 50.0 mg/kg/injection, schedule: Q01DX009 (ip), vehicle: Klucel (hydroxypropylcellulose) (HPC)
[9] = dose: 100.0 mg/kg/injection, schedule: Q01DX009 (ip), vehicle: Klucel (hydroxypropylcellulose) (HPC)
[10] = dose: 200.0 mg/kg/injection, schedule: Q01DX009 (ip), vehicle: Klucel (hydroxypropylcellulose) (HPC)

Measured: T/C

O=c1oc(-c2cccc([N+](=O)[O-])c2)ns1
inactive: [1] 101 % of control | [2] 97 % of control | [3] 109 % of control

COc1ccc2c(c1OC)C1=NCCc3cc4c(cc3C1(OC)C2=O)OCO4 (stereo not drawn)
inactive: dose: 25.0 mg/kg/injection, schedule: Q01DX005 (ip), vehicle: Klucel (hydroxypropylcellulose) (HPC) 111 % of control | dose: 50.0 mg/kg/injection, schedule: Q01DX005 (ip), vehicle: Klucel (hydroxypropylcellulose) (HPC) 99 % of control | dose: 100.0 mg/kg/injection, schedule: Q01DX005 (ip), vehicle: Klucel (hydroxypropylcellulose) (HPC) 109 % of control | dose: 200.0 mg/kg/injection, schedule: Q01DX005 (ip), vehicle: Klucel (hydroxypropylcellulose) (HPC) 98 % of control

CN(C)CC1(c2ccccc2)C(=O)N(C)C(=O)N(C2CCCCC2)C1=O (stereo not drawn)
inactive: [4] 100 % of control | [5] 105 % of control | [6] 115 % of control

Cc1cccc(NNC(=S)Nc2ccccc2)c1
inactive: [7] 95 % of control | dose: 200.0 mg/kg/injection, schedule: Q04DX003 (ip), vehicle: saline with Tween-80 100 % of control | dose: 400.0 mg/kg/injection, schedule: Q04DX003 (ip), vehicle: saline with Tween-80 90 % of control

O=c1cc2c(n[nH]1)-c1ccccc1C2
inactive: dose: 50.0 mg/kg/injection, schedule: Q01DX005 (ip), vehicle: saline with Tween-80 100 % of control | dose: 100.0 mg/kg/injection, schedule: Q01DX005 (ip), vehicle: saline with Tween-80 109 % of control | dose: 200.0 mg/kg/injection, schedule: Q01DX005 (ip), vehicle: saline with Tween-80 96 % of control

CC1=C(C(=O)Nc2cc(O)ccc2O)C(c2cccc([N+](=O)[O-])c2)C(C(=O)Nc2cc(O)ccc2O)=C(C)N1
inactive: dose: 7.5 mg/kg/injection, schedule: Q01DX005 (ip), vehicle: Klucel (hydroxypropylcellulose) (HPC) 98 % of control | dose: 15.0 mg/kg/injection, schedule: Q01DX005 (ip), vehicle: Klucel (hydroxypropylcellulose) (HPC) 93 % of control | dose: 30.0 mg/kg/injection, schedule: Q01DX005 (ip), vehicle: Klucel (hydroxypropylcellulose) (HPC) 100 % of control

CCOc1ccc2[nH]c(=S)sc2c1
inactive: [8] 100 % of control | [9] 100 % of control | [10] 101 % of control

CCOC(=O)C(C)C(=O)C(C)N1C(=O)c2ccccc2C1=O (stereo not drawn)
inactive: dose: 25.0 mg/kg/injection, schedule: Q04DX003 (ip), vehicle: other 102 % of control | dose: 50.0 mg/kg/injection, schedule: Q04DX003 (ip), vehicle: other 96 % of control | dose: 100.0 mg/kg/injection, schedule: Q04DX003 (ip), vehicle: other 93 % of control | dose: 200.0 mg/kg/injection, schedule: Q04DX003 (ip), vehicle: other 93 % of control | dose: 400.0 mg/kg/injection, schedule: Q04DX003 (ip), vehicle: other 91 % of control

Cc1ccc(S(=O)(=O)OCC2(COCc3ccccc3)CCCCC2=O)cc1 (stereo not drawn)
inactive: [8] 106 % of control | [9] 92 % of control | [10] 95 % of control

Cc1ccc(NC(=O)N2c3ccccc3SC23CCCCC3)c(C)c1
inactive: [4] 102 % of control | [5] 105 % of control | [6] 103 % of control

CCCC12C=C(OC)C(=O)C(C1=O)C(c1ccc3c(c1)OCO3)C2C (stereo not drawn)
inactive: dose: 8.75 mg/kg/injection, schedule: Q01DX005 (ip), vehicle: Klucel (hydroxypropylcellulose) (HPC) 118 % of control | dose: 17.5 mg/kg/injection, schedule: Q01DX005 (ip), vehicle: Klucel (hydroxypropylcellulose) (HPC) 110 % of control | dose: 35.0 mg/kg/injection, schedule: Q01DX005 (ip), vehicle: Klucel (hydroxypropylcellulose) (HPC) 100 % of control

CN(C)c1ccc(/C=C/c2ccc3ccccc3n2)cc1
inactive: dose: 25.0 mg/kg/injection, schedule: Q01DX009 (ip), vehicle: saline with Tween-80 95 % of control | [4] 100 % of control | [5] 100 % of control | [7] 100 % of control

CC(=O)Nc1ccc2nc(SC(C)C)sc2c1
inactive: [1] 104 % of control | [2] 102 % of control | [3] 96 % of control
